Earlier results as cited in PubChem BioAssay AID1259409 (Chemical Carcinogenesis Research Information System (CCRIS), 2018).

Tested on: rodent chemically induced tumor inhibition, incidence and multiplicity
Experiment: CCRIS tumor inhibitor studies
Conditions: Dose [Inhibitor]: 0, Promoter: NONE USED

Row | Compound | tumour outcome (control, treated, inhibition, significance) (Carcinogen: 1,2-DIMETHYLHYDRAZINE DIHYDROCHLORIDE, 306-37-6, 2.5 MG/KG IN PEANUT OIL ON DAYS 1 AND 3 OF STUDY THEN 1/WK FOR 30 WK (STUDY DURATION: 31 WK), Route [Inhibitor]: SUBCUTANEOUS, Species: RAT, Strain/Sex: SPRAGUE-DAWLEY/MALE, Target Tissue: Type of Lesion: COLON: ADENOCARCINOMA, Dose [Carcinogen]: 9 MG/KG 1/WK FOR 7 WK THEN 19.4 MG/KG 1/WK FOR 13 WK) | tumour outcome (control, treated, inhibition, significance) (Carcinogen: 1,2-DIMETHYLHYDRAZINE DIHYDROCHLORIDE, 306-37-6, 2.5 MG/KG IN PEANUT OIL ON DAYS 1 AND 3 OF STUDY THEN 1/WK FOR 30 WK (STUDY DURATION: 31 WK), Route [Inhibitor]: SUBCUTANEOUS, Species: RAT, Strain/Sex: SPRAGUE-DAWLEY/MALE, Target Tissue: Type of Lesion: SMALL INTESTINE: ADENOCARCINOMA, Dose [Carcinogen]: 9 MG/KG 1/WK FOR 7 WK THEN 19.4 MG/KG 1/WK FOR 13 WK) | tumour outcome (control, treated, inhibition, significance) (Carcinogen: N-BUTYL-N-(4-HYDROXYBUTYL)NITROSAMINE, 3817-11-6, 0.3 UG IN 100 µL SALINE INJECTED INTO RIGHT THIGH 2/WK FOR 20 WK (STUDY DURATION: 20 WK), Route [Inhibitor]: INTRAMUSCULAR, Species: MOUSE, Strain/Sex: C3H/HEJ/FEMALE, Target Tissue: Type of Lesion: BLADDER: CARCINOMA, Dose [Carcinogen]: 0.05% (W/V) SOLUTION IN DRINKING WATER WITH 0.001% (W/V) TWEEN 80 FOR 20 WK) | tumour outcome (control, treated, inhibition, significance) (Carcinogen: N-BUTYL-N-(4-HYDROXYBUTYL)NITROSAMINE, 3817-11-6, 0.3 UG IN 100 µL SALINE INJECTED INTO RIGHT THIGH 2/WK FOR 25 WK (STUDY DURATION: 25 WK), Route [Inhibitor]: INTRAMUSCULAR, Species: MOUSE, Strain/Sex: C3H/HEJ/FEMALE, Target Tissue: Type of Lesion: BLADDER: CARCINOMA, Dose [Carcinogen]: 0.05% (W/V) SOLUTION IN DRINKING WATER WITH 0.001% (W/V) TWEEN 80 FOR 25 WK) | tumour outcome (control, treated, inhibition, significance) (Carcinogen: N-BUTYL-N-(4-HYDROXYBUTYL)NITROSAMINE, 3817-11-6, 6 UG IN 100 µL SALINE INJECTED INTO RIGHT THIGH 2/WK FOR 30 WK (STUDY DURATION: 30 WK), Route [Inhibitor]: INTRAMUSCULAR, Species: RAT, Strain/Sex: WISTAR/FEMALE, Target Tissue: Type of Lesion: BLADDER: CARCINOMA, Dose [Carcinogen]: 0.025% (W/V) SOLUTION IN DRINKING WATER WITH 0.0005% (W/V) TWEEN 80 FOR 30 WK)
1 | CC(=O)OCC(=O)[C@@]1(O)CC[C@H]2[C@@H]3CCC4=CC(=O)CC[C@]4(C)[C@H]3C(=O)C[C@@]21C | 14/14 (100%), 12/13 (92%), 8%, not significant | 13/14 (93%), 10/13 (77%), 17%, not significant | – | – | –
2 | Ac-SDAAVDTSSEITTKDLKEKKEVVEEAEN-OH | – | – | 6/11 (55%), 5/12 (42%), 24%, not significant | 9/16 (56%), 9/16 (56%), 0%, not significant | 9/11 (82%), 6/11 (55%), 33%, not significant
